Measurements published in patent publication US20110154874A1, “MIXTURE FOR THE TREATMENT OF UREA-CONTAINING FERTILIZERS” (FERTIVA GmbH, priority 2007, published 2011).
Values joined by “and” are separate entries in the source; they are usually repeats but may differ in a detail not shown here. Equal entries are not always repeated.

Assays:
[1] = Storage test over 30 days, NBPT loss on treated granulated urea (HPLC analysis); assay type: physicochemical; details: active compound applied to urea
Method: In a further storage test over 30 days at 30° C. and an atmospheric humidity of 60%, the NBPT losses measured (HPLC analysis) were as indicated below. At the beginning of the storage test, the NBPT was applied in a concentration of 0.12% by weight, based on the fertilizer, in a solution having the composition indicated below. The carrier fertilizer used was granulated urea.

Chinese cabbage = details: in vivo

Structure (SMILES) | stabilizing action on the active compound [1] | Fresh mass of shoots 21 days after planting (Chinese cabbage)
CN1CCCC1=O [N-methylpyrrolidone (NMP), N-methylpyrrolidone] | no stabilizing action | –
NC(N)=O [Urea] | – | 14.3 g/pot and 20.05 g/pot and 11.65 g/pot
